Measurements as given in ChEMBL document CHEMBL4699452, “Design, synthesis, and optimization of a series of 2-azaspiro[3.3]heptane derivatives as orally bioavailable fetal hemoglobin inducers” (Bioorg Med Chem Lett, 2020).
pEC50: −log10 of the molar value. Activity calls are given as the source filed them. No cut-off for these calls is given here.

Tests used:
[1] = Metabolic stability in monkey liver microsomes assessed as parent compound remaining at 0.5 mg/mL incubated for 0.5 hrs; assay type: ADME, Macaca mulatta, Microsome; settings: rhesus monkey, read-out: Stabilty
[2] = Induction of fetal hemoglobin in human bone marrow derived CD34+ cells incubated for 5 days by FITC staining based flow cytometry analysis; assay type: functional, tissue-based; settings: cd34-positive (myeloid/lymphoid) cell
[3] = Induction of fetal hemoglobin in human bone marrow derived CD34+ cells assessed as maximum efficacy incubated for 5 days by FITC staining based flow cytometry analysis relative to decitabine; assay type: functional; settings: CD34-positive (myeloid/lymphoid) cell, 120 h, time 5 day
[4] = Metabolic stability in human liver microsomes assessed as parent compound remaining at 0.5 mg/mL incubated for 0.5 hrs; assay type: ADME, Microsome; settings: read-out: Stabilty
[5] = Genotoxicity in Salmonella typhimurium by Ames test; assay type: toxicity; settings: salmonella enterica subsp. enterica serovar typhimurium
[6] = target: T1, CYP1A2 (Homo sapiens, UniProt P05177); assay: Inhibition of CYP1A2 (unknown origin) at 10 uM relative to control; assay type: ADME
T1 sequence (P05177 whole entry): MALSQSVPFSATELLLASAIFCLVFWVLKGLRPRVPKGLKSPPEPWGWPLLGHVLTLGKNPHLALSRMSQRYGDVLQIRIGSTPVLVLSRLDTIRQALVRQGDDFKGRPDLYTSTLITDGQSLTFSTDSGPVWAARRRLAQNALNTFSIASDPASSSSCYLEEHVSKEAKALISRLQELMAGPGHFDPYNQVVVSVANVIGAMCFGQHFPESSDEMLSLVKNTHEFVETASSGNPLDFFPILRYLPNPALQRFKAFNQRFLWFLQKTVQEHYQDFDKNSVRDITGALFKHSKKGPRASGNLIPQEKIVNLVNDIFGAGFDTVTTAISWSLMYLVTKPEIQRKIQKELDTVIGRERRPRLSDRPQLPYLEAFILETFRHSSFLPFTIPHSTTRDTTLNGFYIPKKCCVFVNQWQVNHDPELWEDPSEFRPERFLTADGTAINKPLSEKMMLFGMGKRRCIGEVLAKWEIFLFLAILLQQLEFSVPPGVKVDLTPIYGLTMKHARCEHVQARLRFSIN

[7] = AUClast in monkey at 1 mg/kg, po; assay type: ADME, organism-based, Macaca mulatta; parameters: route oral, time 0 - last, dose 1 mg/kg; settings: rhesus monkey, in vivo
[8] = Cytotoxicity against human bone marrow derived CD34+ cells assessed as effect on cell viability at 15 uM by propidium iodide staining based assay relative to control; parameters: species or system CD34-positive (myeloid/lymphoid) cell; settings: read-out: Activity
[9] = target: hERG (KCNH2) (Homo sapiens, UniProt Q12809); assay: Inhibition of human ERG at 10 uM relative to control
[10] = target: T2, CYP3A4 (Homo sapiens, UniProt P08684); assay: Inhibition of CYP3A4 (unknown origin) at 10 uM relative to control; assay type: ADME
[11] = Toxicity in cynomolgus monkey assessed as transient hypoglycemia at 30 mg/kg, po qd administered for 6 consecutive days; assay type: organism-based, Macaca fascicularis; settings: in vivo, 144 h, time 6 day
[12] = Protein binding in monkey plasma; assay type: ADME, cell-free, Macaca mulatta; settings: rhesus monkey, read-out: PPB (converted)
[13] = tested on: Macaca fascicularis; assay: In vivo induction of fetal hemoglobin in cynomolgus monkey assessed as gamma-globin gene expression at 30 mg/kg, po qd administered for 6 consecutive days by RT-qPCR analysis; assay type: functional, organism-based; settings: time 6.0 day
[14] = Half life in monkey at 1 mg/kg, po; assay type: ADME, organism-based, Macaca mulatta; settings: rhesus monkey, in vivo
[15] = target: T2, CYP3A4; assay: Mechanism based inhibition of CYP3A4 in human liver microsomes assessed as remaining percentage at 100 uM in presence of substrate incubated for 30 mins relative to control; assay type: ADME; settings: read-out: Activity
[16] = Solubility of the compound in pH 1.2 JP1 fluid; assay type: physicochemical
[17] = target: CYP2D6 (Homo sapiens, UniProt P10635); assay: Inhibition of CYP2D6 (unknown origin) at 10 uM relative to control; assay type: ADME
[18] = Cmax in monkey at 1 mg/kg, po; assay type: ADME, organism-based, Macaca mulatta; parameters: route oral, dose 1 mg/kg; settings: rhesus monkey, in vivo
[19] = Solubility of the compound in pH 6.8 JP2 fluid; assay type: physicochemical
[20] = target: CYP2C9 (Homo sapiens, UniProt P11712); assay: Inhibition of CYP2C9 (unknown origin) at 10 uM relative to control; assay type: ADME
[21] = tested on: Macaca fascicularis; assay: In vivo induction of fetal hemoglobin in po dosed cynomolgus monkey assessed as gamma-globin gene expression administered twice for 6 consecutive days by RT-qPCR analysis; assay type: functional, organism-based; settings: dose mg/kg 15-30, time 6.0 day
[22] = Cytotoxicity against human bone marrow derived CD34+ cells assessed as effect on cell viability at 0.47 to 15 uM by propidium iodide staining based assay; settings: cd34-positive (myeloid/lymphoid) cell, dose 0.47-15 µM
[23] = Cmax in monkey at 10 mg/kg, po; assay type: ADME, organism-based, Macaca mulatta; parameters: route oral, dose 10 mg/kg; settings: rhesus monkey, in vivo
[24] = Half life in monkey at 10 mg/kg, po; assay type: ADME, organism-based, Macaca mulatta; settings: rhesus monkey, in vivo
[25] = AUClast in monkey at 10 mg/kg, po; assay type: ADME, organism-based, Macaca mulatta; parameters: route oral, time 0 - last, dose 10 mg/kg; settings: rhesus monkey, in vivo

Chain of CYP2C9 (P11712 whole entry): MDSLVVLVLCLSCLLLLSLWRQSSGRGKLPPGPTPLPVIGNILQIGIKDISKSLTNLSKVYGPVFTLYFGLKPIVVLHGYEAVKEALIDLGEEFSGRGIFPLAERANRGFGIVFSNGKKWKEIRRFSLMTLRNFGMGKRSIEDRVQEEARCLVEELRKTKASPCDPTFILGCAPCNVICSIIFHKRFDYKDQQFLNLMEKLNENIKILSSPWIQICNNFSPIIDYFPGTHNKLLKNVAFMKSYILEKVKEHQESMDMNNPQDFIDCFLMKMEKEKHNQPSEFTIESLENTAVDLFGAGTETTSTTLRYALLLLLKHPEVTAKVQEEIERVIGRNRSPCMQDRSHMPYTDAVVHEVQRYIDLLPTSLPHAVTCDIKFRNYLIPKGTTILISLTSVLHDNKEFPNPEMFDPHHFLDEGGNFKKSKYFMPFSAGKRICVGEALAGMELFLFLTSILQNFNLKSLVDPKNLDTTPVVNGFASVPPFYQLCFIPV
Chain of CYP2D6 (P10635 whole entry): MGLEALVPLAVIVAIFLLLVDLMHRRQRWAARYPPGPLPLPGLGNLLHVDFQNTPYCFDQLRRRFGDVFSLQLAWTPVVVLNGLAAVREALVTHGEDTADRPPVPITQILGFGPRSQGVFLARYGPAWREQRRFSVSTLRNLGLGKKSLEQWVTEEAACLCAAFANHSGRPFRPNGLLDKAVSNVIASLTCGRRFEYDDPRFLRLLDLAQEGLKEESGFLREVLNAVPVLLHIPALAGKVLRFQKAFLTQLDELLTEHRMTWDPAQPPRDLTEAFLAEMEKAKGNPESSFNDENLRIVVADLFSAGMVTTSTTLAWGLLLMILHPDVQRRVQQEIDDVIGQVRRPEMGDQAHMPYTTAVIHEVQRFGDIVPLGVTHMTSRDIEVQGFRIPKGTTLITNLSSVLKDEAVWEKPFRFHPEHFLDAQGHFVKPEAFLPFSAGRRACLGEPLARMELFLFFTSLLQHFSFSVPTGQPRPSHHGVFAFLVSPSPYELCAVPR
T2 sequence (P08684 whole entry): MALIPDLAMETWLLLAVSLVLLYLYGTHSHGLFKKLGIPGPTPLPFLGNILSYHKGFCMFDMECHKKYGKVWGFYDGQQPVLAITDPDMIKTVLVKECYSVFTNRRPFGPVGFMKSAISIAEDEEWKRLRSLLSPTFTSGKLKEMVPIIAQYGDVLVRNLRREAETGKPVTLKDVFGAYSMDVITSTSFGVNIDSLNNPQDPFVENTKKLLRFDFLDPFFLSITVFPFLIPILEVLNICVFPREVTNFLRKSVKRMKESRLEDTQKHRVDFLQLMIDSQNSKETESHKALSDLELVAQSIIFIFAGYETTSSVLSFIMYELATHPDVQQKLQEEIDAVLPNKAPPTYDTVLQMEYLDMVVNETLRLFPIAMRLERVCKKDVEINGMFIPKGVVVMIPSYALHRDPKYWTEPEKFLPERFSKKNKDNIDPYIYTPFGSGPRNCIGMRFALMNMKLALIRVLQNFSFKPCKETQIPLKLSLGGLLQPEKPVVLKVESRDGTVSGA
Chain of hERG (KCNH2) (Q12809 whole entry): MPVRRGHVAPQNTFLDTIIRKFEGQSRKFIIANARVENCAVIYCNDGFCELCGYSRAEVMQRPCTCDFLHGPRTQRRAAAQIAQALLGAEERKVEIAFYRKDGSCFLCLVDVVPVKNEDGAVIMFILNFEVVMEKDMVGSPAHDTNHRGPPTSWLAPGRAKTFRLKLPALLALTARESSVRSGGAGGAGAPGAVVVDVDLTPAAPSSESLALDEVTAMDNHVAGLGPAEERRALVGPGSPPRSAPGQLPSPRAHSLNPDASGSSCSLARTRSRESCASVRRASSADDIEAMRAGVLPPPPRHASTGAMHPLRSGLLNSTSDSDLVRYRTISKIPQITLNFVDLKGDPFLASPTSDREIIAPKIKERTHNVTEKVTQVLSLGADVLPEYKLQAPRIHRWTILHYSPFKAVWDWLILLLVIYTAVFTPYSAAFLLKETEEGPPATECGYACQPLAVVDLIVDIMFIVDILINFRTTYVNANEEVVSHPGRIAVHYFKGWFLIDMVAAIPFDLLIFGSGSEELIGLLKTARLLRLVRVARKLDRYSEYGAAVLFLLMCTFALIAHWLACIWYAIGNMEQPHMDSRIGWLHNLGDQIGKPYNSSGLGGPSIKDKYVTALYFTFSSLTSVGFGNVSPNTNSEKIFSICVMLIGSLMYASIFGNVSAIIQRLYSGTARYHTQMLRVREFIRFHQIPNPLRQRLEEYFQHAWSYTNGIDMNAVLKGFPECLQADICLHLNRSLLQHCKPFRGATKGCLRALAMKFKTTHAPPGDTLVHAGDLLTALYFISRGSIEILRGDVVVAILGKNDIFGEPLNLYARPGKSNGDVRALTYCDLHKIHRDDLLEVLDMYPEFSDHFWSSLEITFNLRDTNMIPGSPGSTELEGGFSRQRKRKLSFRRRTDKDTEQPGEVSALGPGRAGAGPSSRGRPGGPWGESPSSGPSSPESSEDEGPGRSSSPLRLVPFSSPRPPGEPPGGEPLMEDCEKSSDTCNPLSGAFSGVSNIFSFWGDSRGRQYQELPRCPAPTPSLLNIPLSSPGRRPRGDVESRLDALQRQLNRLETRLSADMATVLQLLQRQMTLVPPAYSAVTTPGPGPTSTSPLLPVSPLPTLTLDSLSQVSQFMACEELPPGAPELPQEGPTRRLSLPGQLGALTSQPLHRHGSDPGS

Row | Compound | remaining at 0.5 h [1] | pEC50 [2] | remaining at 0.5 h [4] | Emax [3] | also measured
1 | CCN1CC2(CC(NC(=O)c3cc(-c4ccccc4)no3)C2)C1 | 87% | 5.30 | 100% | 50% | –
2 | CN(C)C(=O)CCN1CCc2c(cc(-c3ccc(F)cc3)n2C)C1=O | 42% | < 5.30 | > 100% | – | –
3 | CN(C)C(=O)CCNC(=O)c1cc(-c2ccccc2F)no1 | 4% | < 5.30 | > 100% | 37% | –
4 | CN(C)C(=O)CCNC(=O)c1cc(-c2cccc(F)c2)no1 | 55% | < 5.30 | > 100% | – | –
5 | CC(CC(=O)N(C)C)NC(=O)c1cc(-c2ccc(F)cc2)no1 (racemic) | 35% | < 5.30 | 91% | – | –
6 | CN(C)CCCNC(=O)c1cc(-c2ccc(F)cc2)no1 | – | < 5.30 | – | – | –
7 | CC(C)C(=O)N1CC2(CC(NC(=O)c3cc(-c4ccccc4)no3)C2)C1 | 55% | < 5.30 | 79% | 27% | –
8 | CN(C)C(=O)CCNC(=O)c1csc(-c2ccc(F)cc2)n1 | 0.1% | < 5.30 | 53% | – | –
9 | CN(C)C(=O)CCN(C)C(=O)c1cc(-c2ccc(F)cc2)no1 | 36% | < 5.30 | 98% | – | –
10 | CN(C)C(=O)CCN1CCn2cc(-c3ccc(F)cc3)cc2C1=O | 41% | < 5.30 | 94% | – | –
11 | CN(C)C(=O)CCNC(=O)C1CSC(c2ccc(F)cc2)N1 (mixture of isomers) | 32% | < 5.30 | 90% | – | –

Further lines, with some results ahead:

Row | remaining at 0.5 h [1] | pEC50 [2] | remaining at 0.5 h [4] | Compound | Emax [3] | also measured
12 | 64% | 5.55 | > 100% | CC(=O)N1CC2(CC(NC(=O)c3cc(-c4ccccc4)no3)C2)C1 | 54% | Activity [5]: Non-Toxic; inhibition at 10 µM [6]: 3%; AUC(0-t) [7]: 4210 ng·h/mL; viability at 15 µM [8]: 20%; inhibition at 10 µM [9]: 18%; inhibition at 10 µM [10]: < 0%; Activity [11]: Toxic; fraction unbound [12]: 0.41; Activity [13]: Active; half-life [14]: 3.7 h; activity at 0.5 h, 100 µM [15]: 94%; solubility [16]: > 100 µg/mL; inhibition at 10 µM [17]: 2%; Cmax [18]: 545 ng/mL; solubility [19]: > 100 µg/mL; inhibition at 10 µM [20]: < 0%; Activity [21]: Dose-dependent effect
13 | 4.7% | 5.77 | 81% | CN(C)C(=O)CCNC(=O)c1cc(-c2ccccc2)no1 | 51% | –
14 | 39% | < 5.30 | 99% | CN(C)C(=O)CCN1CCc2[nH]c(-c3ccc(F)cc3)cc2C1=O | – | –
15 | 69% | < 5.30 | 68% | CCC(=O)N1CC2(CC(NC(=O)c3cc(-c4ccccc4)no3)C2)C1 | 47% | –
16 | 11% | 5.21 | 84% | CN(C)C(=O)CNC(=O)c1cc(-c2ccc(F)cc2)no1 | 41% | –
17 | 52% | < 5.30 | 61% | CC(CNC(=O)c1cc(-c2ccc(F)cc2)no1)C(=O)N(C)C (racemic) | – | –
18 | – | 5.39 | – | CN(C)C(=O)CCCNC(=O)c1cc(-c2ccc(F)cc2)no1 | 55% | –
19 | 34% | < 5.30 | > 100% | CN(C)C(=O)CCNC(=O)c1cc(C2CCCCC2)no1 | – | –
20 | 17% | < 5.30 | 50% | CC(=O)N1CC(CNC(=O)c2cc(-c3ccccc3)no2)C1 | – | –
21 | 79% | 5.54 | 84% | CC(=O)N1CC2(CC(NC(=O)c3cc(-c4ccc(F)cc4)no3)C2)C1 | 64% | Activity [5]: Non-Toxic; inhibition at 10 µM [6]: 1%; AUC(0-t) [7]: 2350 ng·h/mL; Activity [22]: Non-Toxic; inhibition at 10 µM [10]: < 0%; fraction unbound [12]: 0.28; half-life [14]: 5.9 h; activity at 0.5 h, 100 µM [15]: 98%; solubility [16]: > 100 µg/mL; inhibition at 10 µM [17]: 1%; Cmax [18]: 460 ng/mL; solubility [19]: > 100 µg/mL; inhibition at 10 µM [20]: < 0%
22 | 10% | 5.55 | 87% | CN(C)C(=O)CCNC(=O)c1cc(-c2ccc(F)cc2)no1 | 56% | Activity [5]: Non-Toxic; Cmax [23]: 1360 ng/mL; inhibition at 10 µM [6]: 6%; inhibition at 10 µM [9]: 7.1%; inhibition at 10 µM [10]: < 0%; fraction unbound [12]: 0.42; activity at 0.5 h, 100 µM [15]: 97%; solubility [16]: > 100 µg/mL; inhibition at 10 µM [17]: 5%; half-life [24]: 1 h; AUC(0-t) [25]: 4360 ng·h/mL; solubility [19]: > 100 µg/mL; inhibition at 10 µM [20]: 6%
23 | 87% | 5.41 | 76% | CS(=O)(=O)N1CC2(CC(NC(=O)c3cc(-c4ccccc4)no3)C2)C1 | 45% | –
